For 23 compounds, IC50 and melting point results are on record in US7205326B2, “Aniline derivatives, their manufacture and use as pharmaceutical agents” (Hoffmann-La Roche Inc., priority 2003, dated 2007).

The structures appear in SMILES notation.

In the first series the test system is HCT116 cells. Kind of series: HCT116 cell proliferation MTT assay. In kind it is cell-based. The conditions noted are these: HCT-116; HCT116 human colon carcinoma cells, MTT assay after 5 days (120 h) incubation, compound 3 uM to 0.15 nM. The method, then: HCT116 cells (human colon carcinoma cell line) were cultivated in RPMI 1640, 2.5% FCS, 2 mM Glutamine, 100 u/ml Penicillin, 100 ug/ml Streptomycin. For the assay the cells were seeded in 384 well plates, 1000 cells per well, in the same medium
The next day compounds (dissolved 10 mM in DMSO) were added in various concentrations ranging from 3 uM to 0.15 nM. After 5 days the MTT assay was done mainly according to the instructions of the manufacturer (Cell proliferation kit I, MTT, from Roche Molecular Biochemicals). In brief: MTT labeling reagent was added to a final concentration of 0.5 mg/ml, added and incubated for 4 hrs at 37° C., 5% CO2. During this incubation time purple formazan crystals are formed. After addition of the solubilization solution (20% SDS in 0.02 M HCl) the plates were incubated overnight at 37° C., 5% CO2. After careful mixing plates were measured in Victor 2 (scanning multiwell spectrophotometer, Wallac) at 550 nm.
A decrease in number of living cells results in a decrease in the total metabolic activity in the sample. The decrease directly correlates to the amount of purple color resulting from the solubilization of the purple formazan crystals.
Materials: • HCT116 1000 cells in 60 ul per well of 384 well plate (Greiner) • Medium: RPMI 1640, 2.5% FCS, glutamine, pen/strep. • Incubate 1 day at 37° C.
Induction: • Dilution of compound in DMSO: 3 ul 10 mM+27 ul DMSO, dilute 1:3 • Add 2 ul of compound dilution row to 95 ul of medium • Add 10 ul of compound dilution to 60 ul medium in test plate results in 0.3% DMSO per well • Incubate 120 h (5 days) at 37° C., 5% CO2
Analysis: • Add 7 ul MTT ([…]), incubate 4 h at 37° C. • Add 30 ul lysis buffer (20% SDS, 0.04N HCl) per well • Incubate overnight at 37° C.
Measurement: • Victor 2 (scanning multiwell spectrophotometer, Wallac), at 550 nm • Determination of IC50 was done using XL-fit.
On the technique in general: Formazan colour is commonly taken as a measure of viable cells.
Regarding `FC(F)(F)Oc1ccc(C=Cc2nc(CNc3ccc(CCCCn4ccnn4)cc3)co2)cc1` [Example 1, [4-(4-[1,2,3]Triazol-1-yl-butyl)-phenyl]-{2-[2-(4-trifluoromethoxy-phenyl)-vinyl]-oxazol-4-ylmethyl}-amine], the IC50 (commonly the concentration at which inhibition is half-maximal) was less than 20 nM.

The compound `FC(F)(F)c1ccc(C=Cc2nc(CNc3ccc(CCCCn4ccnn4)cc3)co2)cc1` [Example 2, [4-(4-[1,2,3]Triazol-1-yl-butyl)-phenyl]-{2-[2-(4-trifluoromethyl-phenyl)-vinyl]-oxazol-4-ylmethyl}-amine] registered an IC50 of less than 20 nM. On the same count and under the same terms, next, `CN(Cc1coc(C=Cc2ccc(C(F)(F)F)cc2)n1)c1ccc(CCCCn2ccnn2)cc1` [Example 3, Methyl-[4-(4-[1,2,3]triazol-1-yl-butyl)-phenyl]-{2-[2-(4-trifluoromethyl-phenyl)-vinyl]-oxazol-4-ylmethyl}-amine]: less than 20 nM. Same read-out and setting: next, `FC(F)Oc1ccc(C=Cc2nc(CNc3ccc(CCCCn4ccnn4)cc3)co2)cc1` [Example 4, {2-[2-(4-Difluoromethoxy-phenyl)-vinyl]-oxazol-4-ylmethyl}-[4-(4-[1,2,3]triazol-1-yl-butyl)-phenyl]-amine]: more than 40 nM. On the same count and under the same terms, the figure for `CN(Cc1coc(C=Cc2ccc3c(c2)OCO3)n1)c1ccc(CCCCn2ccnn2)cc1` [Example 13, [2-(2-Benzo[1,3]dioxol-5-yl-vinyl)-oxazol-4-ylmethyl]-methyl-[4-(4-[1,2,3]triazol-1-yl-butyl)-phenyl]-amine] is more than 40 nM; for `CN(Cc1coc(C=Cc2ccc(SC(F)(F)F)cc2)n1)c1ccc(CCCCn2ccnn2)cc1` [Example 14, Methyl-[4-(4-[1,2,3]triazol-1-yl-butyl)-phenyl]-{2-[2-(4-trifluoromethylsulfanyl-phenyl)-vinyl]-oxazol-4-ylmethyl}-amine] it is less than 20 nM. The compound `CN(Cc1coc(C=Cc2ccc(Cl)cc2)n1)c1ccc(CCCCn2ccnn2)cc1` [Example 15, {2-[2-(4-Chloro-phenyl)-vinyl]-oxazol-4-ylmethyl}-methyl-[4-(4-[1,2,3]triazol-1-yl-butyl)-phenyl]-amine] registered an IC50 of more than 40 nM. The compound `FC(F)(F)Oc1ccc(C=Cc2nc(CNc3ccc(OCCCn4ccnn4)cc3)co2)cc1` [Example 16, [4-(3-[1,2,3]Triazol-1-yl-propoxy)-phenyl]-{2-[2-(4-trifluoromethoxy-phenyl)-vinyl]-oxazol-4-ylmethyl}-amine] yielded an IC50 of more than 40 nM. On the same count and under the same terms, the figure for `FC(F)(F)Sc1ccc(C=Cc2nc(CNc3ccc(OCCCn4ccnn4)cc3)co2)cc1` [Example 17, [4-(3-[1,2,3]Triazol-1-yl-propoxy)-phenyl]-{2-[2-(4-trifluoromethylsulfanyl-phenyl)-vinyl]-oxazol-4-ylmethyl}-amine] is more than 40 nM; for `Clc1ccc(C=Cc2nc(CNc3ccc(OCCCn4ccnn4)cc3)co2)cc1` [Example 18, {2-[2-(4-Chloro-phenyl)-vinyl]-oxazol-4-ylmethyl}-[4-(3-[1,2,3]triazol-1-yl-propoxy)-phenyl]-amine] it is more than 40 nM. Same read-out and setting: the figure for `O=C(Nc1ccc(OCCCn2ccnn2)cc1)c1coc(C=Cc2ccc(C(F)(F)F)cc2)n1` [Example 19, 2-[2-(4-Trifluoromethyl-phenyl)-vinyl]-oxazole-4-carboxylic acid [4-(3-[1,2,3]triazol-1-yl-propoxy)-phenyl]-amide] is more than 40 nM. For the compound `O=C(Nc1ccc(OCCCn2ccnn2)cc1)c1coc(C=Cc2ccc(OC(F)(F)F)cc2)n1` [Example 20, 2-[2-(4-Trifluoromethoxy-phenyl)-vinyl]-oxazole-4-carboxylic acid [4-(3-[1,2,3]triazol-1-yl-propoxy)-phenyl]-amide], the half-inhibitory concentration (IC50) was more than 40 nM.

`O=C(Nc1ccc(CCCCn2ccnn2)cc1)c1coc(C=Cc2ccc(OC(F)(F)F)cc2)n1` [Example 21, 2-[2-(4-Trifluoromethoxy-phenyl)-vinyl]-oxazole-4-carboxylic acid [4-(4-[1,2,3]triazol-1-yl-butyl)-phenyl]-amide] gave an IC50 of more than 40 nM. Still for that read-out and setting: the figure for `CN(C(=O)c1coc(C=Cc2ccc(OC(F)(F)F)cc2)n1)c1ccc(CCCCn2ccnn2)cc1` [Example 22, 2-[2-(4-Trifluoromethoxy-phenyl)-vinyl]-oxazole-4-carboxylic acid methyl-[4-(4-[1,2,3]triazol-1-yl-butyl)-phenyl]-amide] is more than 40 nM; for `CN(C(=O)c1coc(C=Cc2ccc(OC(F)(F)F)cc2)n1)c1ccc(OCCCn2ccnn2)cc1` [Example 23, 2-[2-(4-Trifluoromethoxy-phenyl)-vinyl]-oxazole-4-carboxylic acid methyl-[4-(3-[1,2,3]triazol-1-yl-propoxy)-phenyl]-amide] it is more than 40 nM. Still for that read-out and setting: next, `FC(F)(F)c1cccc(C=Cc2nc(CNc3ccc(CCCCn4ccnn4)cc3)co2)c1` [Example 26, [4-(4-[1,2,3]Triazol-1-yl-butyl)-phenyl]-{2-[2-(3-trifluoromethyl-phenyl)-vinyl]-oxazol-4-ylmethyl}-amine]: more than 40 nM; `O=C(Nc1ccc(CCCCn2ccnn2)cc1)c1coc(C=Cc2ccc3c(c2)OC(F)(F)O3)n1` [Example 29, 2-[2-(2,2-Difluoro-benzo [1,3]dioxol-5-yl)-vinyl]-oxazole-4-carboxylic acid [4-(4-[1,2,3]triazol-1-yl-butyl)-phenyl]-amide]: less than 20 nM; `O=C(Nc1ccc(CCCCn2ccnn2)cc1)c1coc(C=Cc2ccc(OC(F)F)cc2)n1` [Example 31, 2-[2-(4-Difluoromethoxy-phenyl)-vinyl]-oxazole-4-carboxylic acid-[4-(4-[1,2,3]triazol-1-yl-butyl)-phenyl]-amide]: less than 20 nM. On the same count and under the same terms, the figure for `CN(C(=O)c1coc(C=Cc2ccc(OC(F)F)cc2)n1)c1ccc(CCCCn2ccnn2)cc1` [Example 32, 2-[2-(4-Difluoromethoxy-phenyl)-vinyl]-oxazole-4-carboxylic acid methyl-[4-(4-[1,2,3]-triazol-1-yl-butyl)-phenyl]-amide] is more than 40 nM; for `Fc1ccc(C=Cc2nc(CNc3ccc(CCCCn4ccnn4)cc3)co2)c(F)c1` [Example 34, {2-[2-(2,4-Difluoro-phenyl)-vinyl]-oxazol-4-ylmethyl}-[4-(4-[1,2,3]triazol-1-yl-butyl)-phenyl]-amine] it is less than 20 nM; for `Fc1cc(Cl)ccc1C=Cc1nc(CNc2ccc(CCCCn3ccnn3)cc2)co1` [Example 35, {2-[2-(4-Chloro-2-fluoro-phenyl)-vinyl]-oxazol-4-ylmethyl}-[4-(4-[1,2,3]triazol-1-yl-butyl)-phenyl]-amine] it is more than 40 nM.

Regarding `FC(F)(F)Oc1ccc(C=Cc2nc(CNc3ccc(COCCn4ccnn4)cc3)co2)cc1` [Example 36, [4-(2-[1,2,3]Triazol-1-yl-ethoxymethyl)-phenyl]-{2-[2-(4-trifluoromethoxy-phenyl)-vinyl]-oxazol-4-ylmethyl}-amine], the IC50 is less than 20 nM. On to `FC(F)(F)c1ccc(C=Cc2nc(CNc3ccc(COCCn4ccnn4)cc3)co2)cc1` [Example 37, [4-(2-[1,2,3]Triazol-1-yl-ethoxymethyl)-phenyl]-{2-[2-(4-trifluoromethyl-phenyl)-vinyl]-oxazol-4-ylmethyl}-amine], for which the IC50 lay in the range of 20 to 40 nM.

System in a further series: not given
Assay: not given
Settings: not given
With `FC(F)(F)Oc1ccc(C=Cc2nc(CNc3ccc(CCCCn4ccnn4)cc3)co2)cc1` [Example 1, [4-(4-[1,2,3]Triazol-1-yl-butyl)-phenyl]-{2-[2-(4-trifluoromethoxy-phenyl)-vinyl]-oxazol-4-ylmethyl}-amine], the melting point (in general, the temperature, or range, at which the solid turns liquid) fell in the range of 103 to 105 °C. `FC(F)(F)c1ccc(C=Cc2nc(CNc3ccc(CCCCn4ccnn4)cc3)co2)cc1` [Example 2, [4-(4-[1,2,3]Triazol-1-yl-butyl)-phenyl]-{2-[2-(4-trifluoromethyl-phenyl)-vinyl]-oxazol-4-ylmethyl}-amine] came in with a melting point of 113 to 115 °C. Compound `CN(Cc1coc(C=Cc2ccc(C(F)(F)F)cc2)n1)c1ccc(CCCCn2ccnn2)cc1` [Example 3, Methyl-[4-(4-[1,2,3]triazol-1-yl-butyl)-phenyl]-{2-[2-(4-trifluoromethyl-phenyl)-vinyl]-oxazol-4-ylmethyl}-amine] showed a melting point of 112 to 114 °C. Same read-out and setting: next, `FC(F)Oc1ccc(C=Cc2nc(CNc3ccc(CCCCn4ccnn4)cc3)co2)cc1` [Example 4, {2-[2-(4-Difluoromethoxy-phenyl)-vinyl]-oxazol-4-ylmethyl}-[4-(4-[1,2,3]triazol-1-yl-butyl)-phenyl]-amine]: 101 to 102 °C.
